{"source": "paper PMC10831071", "about": "“Reaction hijacking inhibition of Plasmodium falciparum asparagine tRNA synthetase” (Nature Communications, 2024)", "key": {"[1]": {"test": "Solid state stability under ambient conditions", "format": "physicochemical"}, "[2]": {"test": "Metabolic stability in human liver microsomes", "format": "in vitro ADME", "conditions": "n = 2", "method": "A solution of the test compounds in phosphate buffer solution (1 µM) was incubated in pooled human and mouse liver microsomes (0.5 mg/ml) for 0, 5, 20, 30, 45 and 60 min at 37 °C in the presence and absence of an NADPH regeneration system (NRS). The tests were carried out by TCGLS, Kolkata, India. The reaction was terminated with the addition of ice-cold acetonitrile, containing a […] standard, at designated time points. The sample was centrifuged (3300 × g) for 20 min at 20 °C and the supernatant was diluted by half in water and then analyzed by LC-MS/MS. The % parent compound remaining, half-life (T1/2) and clearance (CLint,app) were calculated using standard methodology. The experiment was carried out in duplicate. Verapamil, diltiazem, phenacetin and imipramine were used as reference standards."}, "PfAsnRS": {"tested_on": "PfAsnRS", "test": "LC-MS of Asn-OSM-S-106 adduct generated by recombinant PfAsnRS", "format": "biochemical, Plasmodium falciparum", "conditions": "1 μM PfAsnRS, 10 μM OSM-S-106, 1 h, 37 °C; individual experiments", "method": "The reaction buffer consists of 100 mM HEPES pH 7.5 (KOH), 160 mM KCl, 3.5 mM MgCl2, 1 mM DTT. The mixture was incubated at 37 °C for 1 h. After that, an equal volume of 8 M urea was added to the mixture. Finally, trifluoroacetic acid was added to a final concentration of 1%. The sample was centrifuged at 15,000 × g for 10 min and the supernatant was used for LCMS analysis. […] Quantification of the conjugates was done using Skyline (version 21.1.0.278).\nSamples were analyzed by reversed-phase ultra-high-performance liquid chromatography (UHPLC) coupled to tandem mass spectrometry (MS/MS) employing a Vanquish UHPLC linked to an Orbitrap Fusion Lumos mass spectrometer (Thermo Fisher Scientific, San Jose, CA, USA) operated in positive ion mode. Solvent A was 0.1% formic acid/10 mM ammonium acetate in water and solvent B was 0.1% formic acid/10 mM ammonium acetate in acetonitrile. […] Finally, the percentage of solvent B was decreased to 0% in 0.1 min and maintained for 3.9 min.\nMS experiments were performed using a Heated Electrospray Ionization (HESI) source. The spray voltage, flow rate of sheath, auxiliary and sweep gases were 3.5 kV, 20, 6, and 1 ‘arbitrary’ unit(s), respectively. The ion transfer tube and vaporizer temperatures were maintained at 350 °C and 400 °C, respectively, and the S-Lens RF level was set at 50%. […]"}, "P. falciparum Dd2 parent": {"tested_on": "P. falciparum Dd2 parent", "test": "72 h sensitivity of wildtype Dd2 parent line", "format": "cell-based, Plasmodium falciparum", "conditions": "for growth after 72 h exposure, normalised to no drug: replicates"}, "[3]": {"tested_on": "protein translation in P. falciparum trophozoites (Cam3.II-rev)", "test": "Protein translation assay (OPP incorporation)", "format": "cell-based, Plasmodium falciparum", "conditions": "for Translation: 6 h exposure, individual experiments, 0 nM = 100", "method": "O-propargyl-puromycin (OPP) (Abcam) was added to the culture and incubated for a further 2 h. Parasites were washed three times in 1 × PBS (Gibco™) and fixed with 4% formaldehyde (Polysciences) and 0.02% glutaraldehyde (Sigma) in 1 × PBS for 20 min at room temperature (RT). Cells were washed two times with buffer A (3% human serum in 1 × PBS). Pellets were permeabilized in buffer A containing 0.05% Triton® X-100 and washed two times with buffer A. Fixed-permeabilized cells were subjected to copper-catalyzed azide–alkyne cycloaddition (CuAAC) at 37 °C for 1 h in the presence of 0.1 mM CuSO4, 0.5 mM THPTA, 5 mM sodium ascorbate, and 0.1 μM Alexa Fluor 488 azide in buffer A. Pellets were washed four times in buffer A and resuspended in buffer A containing 25 μg/ml propidium iodide (Invitrogen™). Cells were interrogated by flow cytometry (FACS Canto II; BD Biosciences, San Jose, CA) using FITC and Cy™5.5 channels."}}, "note": "Several values for one entry are separate records, joined by “and”; a condition that tells them apart may be missing. Equal entries are not always repeated.", "data": [{"smiles": "Nc1ncnc2cc(-c3cccc(S(N)(=O)=O)c3)sc12", "note": "[OSM-S-106]", "values": [{"measurement": "stability in the solid state", "setting": "[1]", "value": "stable in the solid state"}, {"measurement": "Degradation half-life", "setting": "[2]", "value": "395/619"}, {"measurement": "MS peak area (Asn-OSM-S-106 adduct)", "setting": "PfAsnRS", "value": "50050244 and 46285516 and 50264000 and 46572204"}, {"measurement": "growth after 72 h exposure, normalised to no drug", "setting": "P. falciparum Dd2 parent; Dd2 parent, 3.90625 nM", "value": "105.433 and 105.733 and 104.567 and 104.167 and 104.633"}, {"measurement": "growth after 72 h exposure, normalised to no drug", "setting": "P. falciparum Dd2 parent; Dd2 parent, 7.8125 nM", "value": "105.2 and 103.8 and 105.633 and 102.933 and 104.1"}, {"measurement": "growth after 72 h exposure, normalised to no drug", "setting": "P. falciparum Dd2 parent; Dd2 parent, 31.25 nM", "value": "88.9667 and 98.9 and 97.0667 and 93.5333 and 97.5667"}, {"measurement": "growth after 72 h exposure, normalised to no drug", "setting": "P. falciparum Dd2 parent; Dd2 parent, 62.5 nM", "value": "45.3 and 68.4 and 68.8333 and 58.4667 and 65.5"}, {"measurement": "growth after 72 h exposure, normalised to no drug", "setting": "P. falciparum Dd2 parent; Dd2 parent, 125 nM", "value": "7.633 and 16.6667 and 15.5333 and 13.8333 and 17.5667"}, {"measurement": "growth after 72 h exposure, normalised to no drug", "setting": "P. falciparum Dd2 parent; Dd2 parent, 250 nM", "value": "0.2 and 1.267 and 0.5667 and -1.767 and 2.067"}, {"measurement": "growth after 72 h exposure, normalised to no drug", "setting": "P. falciparum Dd2 parent; Dd2 parent, 500 nM", "value": "-1.167 and 0 and -0.8 and -3.167 and 0.4"}, {"measurement": "growth after 72 h exposure, normalised to no drug", "setting": "P. falciparum Dd2 parent; Dd2 parent, 1000 nM", "value": "-1.867 and -0.3333 and -1.3 and -3.5 and -0.4667"}, {"measurement": "growth after 72 h exposure, normalised to no drug", "setting": "P. falciparum Dd2 parent; Dd2 parent, 2000 nM", "value": "-0.8333 and -0.3667 and -0.8667 and -2.833 and 0.5"}, {"measurement": "IC50", "setting": "P. falciparum Dd2 parent; Dd2 parent, individual experiments", "value": "75.6 nM and 76.2 nM and 70 nM and 74.2 nM"}, {"measurement": "IC50", "setting": "P. falciparum Dd2 parent; Plasmodium falciparum, DD2, Dd2 parent, individual experiments", "value": 57, "unit": "nM"}, {"measurement": "IC50", "setting": "P. falciparum Dd2 parent; Plasmodium falciparum, DD2, Dd2 parent, mean ± S.D., five experiments", "value": 71, "unit": "nM"}, {"measurement": "Translation", "setting": "[3]; 78.1 nM", "value": "88.2194 and 68.5604 and 78.7165"}, {"measurement": "Translation", "setting": "[3]; 156.3 nM", "value": "70.9569 and 76.7178 and 73.7965"}, {"measurement": "Translation", "setting": "[3]; 312.5 nM", "value": "55.5714 and 55.4781 and 55.6229"}, {"measurement": "Translation", "setting": "[3]; 625 nM", "value": "47.9476 and 51.4282 and 41.085"}, {"measurement": "Translation", "setting": "[3]; 1250 nM", "value": "31.8914 and 46.8967 and 33.6793"}, {"measurement": "Translation", "setting": "[3]; 2500 nM", "value": "20.1284 and 25.4073 and 16.4444"}, {"measurement": "Translation", "setting": "[3]; 5000 nM", "value": "10.3606 and 16.5158 and 20.3119"}, {"measurement": "Translation", "setting": "[3]; 10000 nM", "value": "7.683 and 13.3898 and 13.8481"}, {"measurement": "Translation", "setting": "[3]; 20000 nM", "value": "7.414 and 4.917 and 2.903"}, {"measurement": "Translation", "setting": "[3]; 40000 nM", "value": "7.804 and 8.474 and 8.853"}, {"measurement": "IC50", "setting": "[3]; Plasmodium falciparum, read-out: IC50 (Translation)", "value": 510, "unit": "nM"}]}]}
